Test results from US11447445B2, “Diabetes and metabolic syndrome treatment with a novel dual modulator of soluble epoxide hydrolase and peroxisome proliferator-activated receptors” (priority 2015, dated 2022).
Like-named read-outs stand apart in the source and are kept apart here.

Key:
PPARα = target: T1, PPARα (Homo sapiens, UniProt Q07869); type: cell-based; conditions: for PPARα activation @10 μM: at 10 μM
T1 construct: expressed in transfected cells; host or cells: COS-7
Procedure: (§1) COS-7 cells (PPAR) were grown in DMEM high glucose, supplemented with 10% fetal calf serum (FCS), 1% sodium pyruvate (SP) and 1% penicillin/streptomycin (PS) at 37° C. and 5% CO2. Used plasmids for PPAR transactivation assay are shown under supporting informations.
(§2) The day before transfection, COS-7 cells were seeded in 96-well plates with a density of 30,000 cells per well. Transient transfection was carried out using Lipofectamine LTX reagent (Invitrogen, Carlsbad, Calif., USA) according to the manufacturer's protocol with pFR-Luc (Stratagene), pRL-SV40 (Promega) and the Ga14-fusion receptor plasmids (pFA-CMV-hPPAR-LBD) of the respective PPAR subtype. 5 h after transfection, medium was changed to DMEM without phenol red and 10% FCS, supplemented with 1% SP, 1% PS and 1% L-glutamine, now additionally containing 0.1% DMSO and the respective test compound or 0.1% DMSO alone as untreated control. Each concentration was tested in triplicate wells and each experiment was repeated independently at least three times. Following overnight incubation with the test compounds, cells were assayed for luciferase activity using Dual-Glo™ Luciferase Assay System (Promega) according to the manufacturer's protocol. Luminescence was measured with an Infinite m200 luminometer (Tecan Deutschland GmbH). Each concentration of the compounds was tested in triplicate wells. Normalization for transfection efficacy and cell growth was done by division of the firefly luciferase data by renilla luciferase data resulting in relative light units. Activation factors were obtained by dividing by DMSO control. […] All compounds were evaluated by comparison of the achieved maximum effect to that of the reference compound (pioglitazone for PPARγ, GW7647 for PPARa, and L165041 for PPARS each with 1 μM). Data are expressed as mean±SE; n≥3.
(§3) The Gal4-fusion receptor plasmids pFA-CMV-PPARa-LBD, pFA-CMV-PPARS-LBD and pFA-CMV-PPARγ-LBD containing the hinge region and ligand binding domain (LBD) for each of the PPAR subtypes, respectively, were constructed by integrating cDNA fragments obtained from PCR amplification of human monocytes into the SmaI/XbaI cleavage site of the pFA-CMV vector (Stratagene, La Jolla, Calif., USA) and have already been published. […] Frame and sequence of the fusion receptors were verified by sequencing. pFR-Luc (Stratagene) was used as reporter plasmid and pRL-SV40 (Promega) for normalization of transfection efficacy and cell growth.

PPARδ = target: T2, PPARδ (Homo sapiens, UniProt Q03181); assay: PPAR transactivation assay in COS-7 cells (Gal4-hPPAR-LBD, luciferase); type: cell-based
T2 construct: expressed in transfected cells; host or cells: COS-7
Procedure: as §1, §2, §3

recombinant human sEH = target: T3, recombinant human sEH (Homo sapiens, UniProt P34913); assay: biochemical; conditions: read-out: IC50 sEH (converted)
T3 sequence (P34913 1-555): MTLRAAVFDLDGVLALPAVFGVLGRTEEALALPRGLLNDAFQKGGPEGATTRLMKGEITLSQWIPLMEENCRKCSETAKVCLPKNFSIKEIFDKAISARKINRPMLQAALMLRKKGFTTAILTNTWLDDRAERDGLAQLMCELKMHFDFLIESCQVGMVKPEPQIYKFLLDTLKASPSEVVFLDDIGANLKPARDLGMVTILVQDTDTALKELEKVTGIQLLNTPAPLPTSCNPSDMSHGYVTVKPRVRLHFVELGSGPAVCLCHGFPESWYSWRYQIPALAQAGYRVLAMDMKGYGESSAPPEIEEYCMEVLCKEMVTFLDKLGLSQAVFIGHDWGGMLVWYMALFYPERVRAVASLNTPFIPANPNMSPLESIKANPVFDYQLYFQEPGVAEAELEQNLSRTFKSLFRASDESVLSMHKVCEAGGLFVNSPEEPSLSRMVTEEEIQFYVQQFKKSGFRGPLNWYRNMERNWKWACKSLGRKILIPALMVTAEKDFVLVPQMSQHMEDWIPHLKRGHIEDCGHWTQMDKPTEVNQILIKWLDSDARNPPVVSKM

T1 sequence (Q07869 239-466): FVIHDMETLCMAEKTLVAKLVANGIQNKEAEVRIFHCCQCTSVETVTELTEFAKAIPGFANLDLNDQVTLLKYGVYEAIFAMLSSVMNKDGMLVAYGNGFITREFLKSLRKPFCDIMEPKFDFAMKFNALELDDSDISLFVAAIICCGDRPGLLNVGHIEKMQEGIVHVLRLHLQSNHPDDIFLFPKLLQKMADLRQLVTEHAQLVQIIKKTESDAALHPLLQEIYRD
T2 sequence (Q03181 211-439): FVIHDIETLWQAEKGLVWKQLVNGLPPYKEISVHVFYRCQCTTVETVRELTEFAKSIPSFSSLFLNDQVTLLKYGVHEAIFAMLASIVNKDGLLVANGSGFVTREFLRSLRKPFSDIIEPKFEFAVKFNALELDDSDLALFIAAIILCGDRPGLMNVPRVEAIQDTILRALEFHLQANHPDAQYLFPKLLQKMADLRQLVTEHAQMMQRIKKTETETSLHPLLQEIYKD

SMILES | IC50 (recombinant human sEH) [nM] | other results
CCOC(=O)C(CC)Cc1ccc(C(=O)NCc2ccccc2)cc1 (stereo not drawn) [Compound 2b, Ethyl 2-ethyl 3-[4-(N-benzylbenzamide)]propanoate] |  | EC50 PPARα (PPARα): n.t. i.a. i.a. n.t.; EC50 PPARδ (PPARδ): n.t. i.a. i.a. n.t.
CC/C(=C\c1ccc(C(=O)NCc2ccccc2)cc1)C(=O)O [Compound 2d, (E)-4-[N-Benzylbenzamide]-alpha-ethylcinnamic acid] | 9300 | 
CCOC(=O)/C(=C/c1ccc(C(=O)NCc2ccccc2C)cc1)CC [Compound 3a, Ethyl (E)-4-[N-((2-methyl)benzyl)benzamide]-alpha-ethylcinnamate] | 760 ± 50 | 
CCOC(=O)C(CC)Cc1ccc(C(=O)NCc2ccccc2C)cc1 (stereo not drawn) [Compound 3b, Ethyl 2-ethyl 3-[4-(N-((2-methyl)benzyl)benzamide)]propanoate] |  | PPARα activation @10 μM (PPARα; compared to GW7647 1 μM): 15%; EC50 PPARδ (PPARδ; i.a. = inactive): n.t. i.a. i.a. n.t.
CC/C(=C\c1ccc(C(=O)NCc2ccccc2C)cc1)C(=O)O [Compound 3d, (E)-4-[N-((2-Methyl)benzyl)benzamide]-alpha-ethylcinnamic acid] | 10000 | 
CCOC(=O)/C(=C/c1ccc(C(=O)NCc2ccccc2Cl)cc1)CC [Compound 4a, Ethyl (E)-4-[N-((2-chloro)benzyl)benzamide]-alpha-ethylcinnamate] | 410 ± 140 | 
CCOC(=O)C(CC)Cc1ccc(C(=O)NCc2ccccc2Cl)cc1 (stereo not drawn) [Compound 4b, Ethyl 2-ethyl 3-[4-(N-((2-chloro)benzyl)benzamide)]propanoate] |  | EC50 PPARα (PPARα; i.a. = inactive): n.t. i.a. i.a. n.t.; EC50 PPARδ (PPARδ; i.a. = inactive): n.t. i.a. i.a. n.t.
CC/C(=C\c1ccc(C(=O)NCc2ccccc2Cl)cc1)C(=O)O [Compound 4d, (E)-4-[N-((2-Chloro)benzyl)benzamide]-alpha-ethylcinnamic acid] | 2800 | 
CCOC(=O)/C(=C/c1ccc(C(=O)NCc2ccccc2Br)cc1)CC [Compound 5a, Ethyl (E)-4-[N-((2-bromo)benzyl)benzamide]-alpha-ethylcinnamate] | 300 ± 80 | 
CC/C(=C\c1ccc(C(=O)NCc2ccccc2Br)cc1)C(=O)O [Compound 5d, (E)-4-[N-((2-Bromo)benzyl)benzamide]-alpha-ethylcinnamic acid] | 2400 | 
CC/C(=C\c1ccc(C(=O)NCc2ccccc2OC(F)(F)F)cc1)C(=O)O [Compound 6d, (E)-4-[N-((2-Trifluoromethoxy)benzyl)benzamide]-alpha-ethylcinnamic acid] | 900 | 
CCOC(=O)/C(=C/c1ccc(C(=O)NCc2ccc(F)cc2)cc1)CC [Compound 7a, Ethyl (E)-4-[N-((4-fluoro)benzyl)benzamide]-alpha-ethylcinnamate] | 62 ± 3 | 
CCOC(=O)C(CC)Cc1ccc(C(=O)NCc2ccc(F)cc2)cc1 (stereo not drawn) [Compound 7b, Ethyl 2-ethyl 3-[4-(N-((4-fluoro)benzyl)benzamide)]propanoate] |  | EC50 PPARα (PPARα): n.t. i.a. i.a. n.t.; EC50 PPARδ (PPARδ): n.t. i.a. i.a. n.t.
CC/C(=C\c1ccc(C(=O)NCc2ccc(F)cc2)cc1)C(=O)O [Compound 7d, (E)-4-[N-((4-Fluoro)benzyl)benzamide]-alpha-ethylcinnamic acid] | 6700 | 
CCOC(=O)/C(=C/c1ccc(C(=O)NCc2ccc(C(F)(F)F)cc2)cc1)CC [Compound 8a, Ethyl (E)-4-[N-((4-trifluoromethyl)benzyl)benzamide]-alpha-ethylcinnamate] | 550 ± 60 | 
CCOC(=O)C(CC)Cc1ccc(C(=O)NCc2ccc(C(F)(F)F)cc2)cc1 (stereo not drawn) [Compound 8b, Ethyl 2-ethyl 3-[4-(N-((4-trifluoromethyl)benzyl)benzamide)]propanoate] |  | PPARα activation @10 μM (PPARα; compared to GW7647 1 μM): 22%; EC50 PPARδ (PPARδ; i.a. = inactive): n.t. i.a. i.a. n.t.

SMILES | IC50 (recombinant human sEH) [nM] | other results
CCC(Cc1ccc(C(=O)NCc2ccc(C(F)(F)F)cc2)cc1)C(=O)O (stereo not drawn) [Compound 8c, 2-Ethyl 3-[4-(N-((4-trifluoromethyl)benzyl)benzamide)]propionic acid] |  | EC50 PPARδ (PPARδ; i.a. = inactive): n.t. i.a. i.a. n.t.
CCOC(=O)/C(=C/c1ccc(C(=O)NCc2ccc(OC(F)(F)F)cc2)cc1)CC [Compound 9a, Ethyl (E)-4-[N-((4-trifluoromethoxy)benzyl)benzamide]-alpha-ethylcinnamate] | 880 ± 100 | 
CCOC(=O)C(CC)Cc1ccc(C(=O)NCc2ccc(OC(F)(F)F)cc2)cc1 (stereo not drawn) [Compound 9b, Ethyl 2-ethyl 3-[4-(N-((4-trifluoromethoxy)benzyl)benzamide)]propanoate] |  | EC50 PPARδ (PPARδ; i.a. = inactive): n.t. i.a. i.a. n.t.
CCC(Cc1ccc(C(=O)NCc2ccc(OC(F)(F)F)cc2)cc1)C(=O)O (stereo not drawn) [Compound 9c, 2-Ethyl 3-[4-(N-((4-trifluoromethoxy)benzyl)benzamide)]propionic acid] |  | EC50 PPARδ (PPARδ; i.a. = inactive): n.t. i.a. i.a. n.t.
CC/C(=C\c1ccc(C(=O)NCc2ccc(OC(F)(F)F)cc2)cc1)C(=O)O [Compound 9d, (E)-4-[N-((4-Trifluoromethoxy)benzyl)benzamide]-alpha-ethylcinnamic acid] | 1600 | 
CC/C(=C\c1ccc(C(=O)NCc2ccc(OC)cc2)cc1)C(=O)O [Compound 10d, (E)-4-[N-((4-Methoxy)benzyl)benzamide]-alpha-ethylcinnamic acid] | 13000 | 
CCOC(=O)/C(=C/c1ccc(C(=O)NCc2ccc(Oc3ccccc3)cc2)cc1)CC [Compound 12a, Ethyl (E)-4-[N-((4-phenoxy)benzyl)benzamide]-alpha-ethylcinnamate] | 1400 ± 60 | 
CCOC(=O)C(CC)Cc1ccc(C(=O)NCc2ccc(Oc3ccccc3)cc2)cc1 (stereo not drawn) [Compound 12b, Ethyl 2-ethyl 3-[4-(N-((4-phenoxy)benzyl)benzamide)]propanoate] |  | Emax-% PPARα (maximum activation in percent) (PPARα; compared to GW7647 1 μM): 110%; EC50 PPARδ (PPARδ; i.a. = inactive): i.a.
CC/C(=C\c1ccc(C(=O)NCc2ccc(Oc3ccccc3)cc2)cc1)C(=O)O [Compound 12d, (E)-4-[N-((4-Phenoxy)benzyl)benzamide]-alpha-ethylcinnamic acid] | 800 | 
CCOC(=O)/C(=C/c1ccc(C(=O)NCc2ccc(F)cc2C(F)(F)F)cc1)CC [Compound 13a] | 100 ± 10 | 
CCOC(=O)C(CC)Cc1ccc(C(=O)NCc2ccc(F)cc2C(F)(F)F)cc1 (stereo not drawn) [Compound 13b, Ethyl 2-ethyl 3-[4-(N-(4-fluoro(2-trifluoromethyl)benzyl)benzamide)]propanoate] |  | EC50 PPARα (PPARα; i.a. = inactive): n.t. i.a. i.a. n.t.; EC50 PPARδ (PPARδ; i.a. = inactive): n.t. i.a. i.a. n.t.
CC/C(=C\c1ccc(C(=O)NCc2ccc(F)cc2C(F)(F)F)cc1)C(=O)O [Compound 13d, (E)-4-[N-((4-Fluoro(2-trifluoromethyl))benzyl)benzamide]-alpha-ethylcinnamic acid] | 1200 | 
CCOC(=O)/C(=C/c1ccc(C(=O)NCc2ccc(OC)cc2C(F)(F)F)cc1)CC [Compound 14a] | 50 ± 9 | 
CC/C(=C\c1ccc(C(=O)NCc2ccc(OC)cc2C(F)(F)F)cc1)C(=O)O [Compound 14d] | 400 | 
CCOC(=O)/C(=C/c1cccc(C(=O)NCc2ccccc2C(F)(F)F)c1)CC [Compound 15a, Ethyl (E)-3-[N-((2-trifluoromethyl)benzyl)benzamide]-alpha-ethylcinnamate] | 40 ± 6 | 
CC/C(=C\c1cccc(C(=O)NCc2ccccc2C(F)(F)F)c1)C(=O)O [Compound 15d, (E)-3-[N-((2-Trifluoromethyl)benzyl)benzamide]-alpha-ethylcinnamic acid] | 400 ± 100 | 
